In patent US7964531B2, “3-phenoxy-4-pyridazinol derivatives and herbicidal composition containing the same” (Mitsui Chemicals Agro, Inc., priority 2001, dated 2011):

What was measured:
Assay type in all cases: in vivo
Details in all cases: wettable powder applied 3 days after transplanting, judged after 25 days
[1] = tested on: Cyperus serotinus; test: Test Example 1: herbicidal effects, paddy-field pot test
Procedure: (§1) A paddy soil was filled in 1/10,000 are pot, and seeds of barnyardgrass (Echinochloa oryzicola Vasing.), Scirpus joncoides and annual broad-leaved weeds (Lindernia spp., Rotala indica) which are awaken from dormancy were mixed at the surface layer of 1 cm. Also, tuber of Cyperus serotinus which is germinated was planted, and further seedlings of paddy-field rice at 2.2-leaf stage were transplanted, and they were grown under the flooded condition in a greenhouse. After 3 days from transplanting, a predetermined chemical dosage of the wettable powder prepared in accordance with Preparation example 1 was diluted in water, and the solution was applied to the pot and herbicidal effects and crop injury against transplanted paddy-field rice were judged after 25 days from the treatment. Also, 3-(2-allylphenoxy)-6-chloro-4-methoxypyridazine described in Chemical Pharmaceutical Bulletin, 1972, vol. 20, No. 10, pp. 2191-2203 was used as Comparative compound. Incidentally, herbicidal effects and crop injury against transplanted paddy-field rice were judged by the following judgment standard, and “-” in the table means no test was carried out.
(§2) Judgment Standard • 0: Growth inhibition rate; 0 to 10% • 1: Growth inhibition rate; 11 to 30% • 2: Growth inhibition rate; 31 to 50% • 3: Growth inhibition rate; 51 to 70% • 4: Growth inhibition rate; 71 to 90% • 5: Growth inhibition rate; 91 to 100%.

[2] = tested on: Scirpus joncoides; test: as above
Procedure: as §1, §2

[3] = tested on: annual broad-leaved weeds (Lindernia spp., Rotala indica); test: as above
Procedure: as §1, §2

[4] = tested on: barnyardgrass (Echinochloa oryzicola Vasing.); test: as above
Procedure: as §1, §2

[5] = tested on: transplanted paddy-field rice; test: Test Example 1: crop injury against transplanted paddy-field rice
Procedure: as §1, §2

| SMILES | Herbicidal effects Cyperus serotinus ([1]; chemical dosage 25 g/a) | Herbicidal effects Scirpus joncoides ([2]; chemical dosage 25 g/a) | Herbicidal effects Broad leaf ([3]; chemical dosage 25 g/a) | Herbicidal effects Barnyard grass ([4]; chemical dosage 25 g/a) | Crop injury against transplanted rice ([5]; chemical dosage 25 g/a) | Herbicidal effects Cyperus serotinus ([1]; chemical dosage 10 g/a) | Herbicidal effects Scirpus joncoides ([2]; chemical dosage 10 g/a) | Herbicidal effects Broad leaf ([3]; chemical dosage 10 g/a) | Herbicidal effects Barnyard grass ([4]; chemical dosage 10 g/a) | Crop injury against transplanted rice ([5]; chemical dosage 10 g/a) | Herbicidal effects Cyperus serotinus ([1]; chemical dosage 12.5 g/a) | Herbicidal effects Scirpus joncoides ([2]; chemical dosage 12.5 g/a) | Herbicidal effects Broad leaf ([3]; chemical dosage 12.5 g/a) | Herbicidal effects Barnyard grass ([4]; chemical dosage 12.5 g/a) | Crop injury against transplanted rice ([5]; chemical dosage 12.5 g/a) | Herbicidal effects Cyperus serotinus ([1]; chemical dosage 20 g/a) | Herbicidal effects Scirpus joncoides ([2]; chemical dosage 20 g/a) | Herbicidal effects Broad leaf ([3]; chemical dosage 20 g/a) | Herbicidal effects Barnyard grass ([4]; chemical dosage 20 g/a) | Crop injury against transplanted rice ([5]; chemical dosage 20 g/a) |
| --- | --- | --- | --- | --- | --- | --- | --- | --- | --- | --- | --- | --- | --- | --- | --- | --- | --- | --- | --- | --- |
| C=CCc1ccccc1Oc1nnc(Cl)cc1OC [Comparative compound, 3-(2-allylphenoxy)-6-chloro-4-methoxypyridazine, reference compound] | 0 (Growth inhibition rate; 0 to 10%) | 0 (Growth inhibition rate; 0 to 10%) | 1 (Growth inhibition rate; 11 to 30%) | 0 (Growth inhibition rate; 0 to 10%) | 0 (Growth inhibition rate; 0 to 10%) | – | – | – | – | – | – | – | – | – | – | – | – | – | – | – |
| Oc1cc(Cl)nnc1Oc1cccc2c1C1CC1C2 (stereo not drawn) [Example 14] | – | – | – | – | – | 5 (Growth inhibition rate; 91 to 100%) | 4 (Growth inhibition rate; 71 to 90%) | 5 (Growth inhibition rate; 91 to 100%) | 0 (Growth inhibition rate; 0 to 10%) | 0 (Growth inhibition rate; 0 to 10%) | – | – | – | – | – | – | – | – | – | – |
| CC(C)c1cccc(Cl)c1Oc1nnc(Cl)cc1O [Example 18] | 5 (Growth inhibition rate; 91 to 100%) | 4 (Growth inhibition rate; 71 to 90%) | 5 (Growth inhibition rate; 91 to 100%) | 1 (Growth inhibition rate; 11 to 30%) | 2 (Growth inhibition rate; 31 to 50%) | – | – | – | – | – | 5 (Growth inhibition rate; 91 to 100%) | 3 (Growth inhibition rate; 51 to 70%) | 5 (Growth inhibition rate; 91 to 100%) | 0 (Growth inhibition rate; 0 to 10%) | 1 (Growth inhibition rate; 11 to 30%) | – | – | – | – | – |
| CC(C)c1cccc(Br)c1Oc1nnc(Cl)cc1O [Example 19] | 5 (Growth inhibition rate; 91 to 100%) | 4 (Growth inhibition rate; 71 to 90%) | 5 (Growth inhibition rate; 91 to 100%) | 1 (Growth inhibition rate; 11 to 30%) | 1 (Growth inhibition rate; 11 to 30%) | – | – | – | – | – | 5 (Growth inhibition rate; 91 to 100%) | 4 (Growth inhibition rate; 71 to 90%) | 5 (Growth inhibition rate; 91 to 100%) | 0 (Growth inhibition rate; 0 to 10%) | 1 (Growth inhibition rate; 11 to 30%) | – | – | – | – | – |
| Cc1cccc(C)c1Oc1nnc(Cl)cc1O [Example 21] | – | – | – | – | – | 5 (Growth inhibition rate; 91 to 100%) | 5 (Growth inhibition rate; 91 to 100%) | 5 (Growth inhibition rate; 91 to 100%) | 2 (Growth inhibition rate; 31 to 50%) | 0 (Growth inhibition rate; 0 to 10%) | – | – | – | – | – | – | – | – | – | – |
| Cc1cccc(C(C)(C)C)c1Oc1nnc(Cl)cc1O [Example 22] | 4 (Growth inhibition rate; 71 to 90%) | 4 (Growth inhibition rate; 71 to 90%) | 5 (Growth inhibition rate; 91 to 100%) | 2 (Growth inhibition rate; 31 to 50%) | 2 (Growth inhibition rate; 31 to 50%) | – | – | – | – | – | 3 (Growth inhibition rate; 51 to 70%) | 2 (Growth inhibition rate; 31 to 50%) | 5 (Growth inhibition rate; 91 to 100%) | 1 (Growth inhibition rate; 11 to 30%) | 1 (Growth inhibition rate; 11 to 30%) | – | – | – | – | – |
| O=S(=O)(Oc1cc(Cl)nnc1Oc1ccccc1C1CC1)C(F)(F)F [Example 26] | – | – | – | – | – | 5 (Growth inhibition rate; 91 to 100%) | 5 (Growth inhibition rate; 91 to 100%) | 5 (Growth inhibition rate; 91 to 100%) | 4 (Growth inhibition rate; 71 to 90%) | 0 (Growth inhibition rate; 0 to 10%) | – | – | – | – | – | 5 (Growth inhibition rate; 91 to 100%) | 5 (Growth inhibition rate; 91 to 100%) | 5 (Growth inhibition rate; 91 to 100%) | 4 (Growth inhibition rate; 71 to 90%) | 0 (Growth inhibition rate; 0 to 10%) |
| Cc1ccc(S(=O)(=O)Oc2cc(Cl)nnc2Oc2ccccc2C2CC2)cc1 [Example 27] | – | – | – | – | – | 5 (Growth inhibition rate; 91 to 100%) | 4 (Growth inhibition rate; 71 to 90%) | 5 (Growth inhibition rate; 91 to 100%) | 2 (Growth inhibition rate; 31 to 50%) | 0 (Growth inhibition rate; 0 to 10%) | – | – | – | – | – | 5 (Growth inhibition rate; 91 to 100%) | 5 (Growth inhibition rate; 91 to 100%) | 5 (Growth inhibition rate; 91 to 100%) | 4 (Growth inhibition rate; 71 to 90%) | 0 (Growth inhibition rate; 0 to 10%) |
| Cc1ccccc1Oc1nnc(Br)cc1O [Example 34] | – | – | – | – | – | 5 (Growth inhibition rate; 91 to 100%) | 2 (Growth inhibition rate; 31 to 50%) | 2 (Growth inhibition rate; 31 to 50%) | 1 (Growth inhibition rate; 11 to 30%) | 0 (Growth inhibition rate; 0 to 10%) | – | – | – | – | – | 5 (Growth inhibition rate; 91 to 100%) | 4 (Growth inhibition rate; 71 to 90%) | 4 (Growth inhibition rate; 71 to 90%) | 2 (Growth inhibition rate; 31 to 50%) | 0 (Growth inhibition rate; 0 to 10%) |
| Oc1cc(Cl)nnc1Oc1ccccc1F [Example 49] | 5 (Growth inhibition rate; 91 to 100%) | 4 (Growth inhibition rate; 71 to 90%) | 5 (Growth inhibition rate; 91 to 100%) | 2 (Growth inhibition rate; 31 to 50%) | 0 (Growth inhibition rate; 0 to 10%) | – | – | – | – | – | 5 (Growth inhibition rate; 91 to 100%) | 3 (Growth inhibition rate; 51 to 70%) | 3 (Growth inhibition rate; 51 to 70%) | 1 (Growth inhibition rate; 11 to 30%) | 0 (Growth inhibition rate; 0 to 10%) | – | – | – | – | – |
| CC(C)c1cccc(C(C)C)c1Oc1nnc(Cl)cc1O [Example 271] | 4 (Growth inhibition rate; 71 to 90%) | 4 (Growth inhibition rate; 71 to 90%) | 5 (Growth inhibition rate; 91 to 100%) | 2 (Growth inhibition rate; 31 to 50%) | – | – | – | – | – | – | 3 (Growth inhibition rate; 51 to 70%) | 2 (Growth inhibition rate; 31 to 50%) | 5 (Growth inhibition rate; 91 to 100%) | 1 (Growth inhibition rate; 11 to 30%) | – | – | – | – | – | – |
